According to article PMC12051030, “Identification of inhibitors of the Salmonella FraB deglycase, a drug target” (FEBS Open Bio, 2025):
Like-named read-outs stand apart in the source and are kept apart here.

Tests used:
[1] = target: His6‐FraB (Salmonella FraB deglycase) (Salmonella enterica subsp. enterica serovar Typhimurium, UniProt Q8ZLD0); test: FraB-G6PD coupled assay, Michaelis–Menten analysis for K I and mode of inhibition; assay type: biochemical; settings: for change of IC50 values with increasing [S]/K m: 'this trend' = IC50 does not vary with [S]/K m, change evident only from 0.2 to 1.6× [S]/K m; for slope in plots of 1/IC50 vs. v o/V max: Fig. S12; for K IU/K IC ratio: average (±SE), from 1/IC50 versus v o/V max plots; for mode of inhibition: kinetic analyses (Lineweaver‐Burk, α′ vs [I], IC50 vs [S]/K m, 1/IC50 vs v o/V max)
Experimental: To determine the K I of each inhibitor, 29 μL of master mix was added to two rows of a 384‐well Greiner plate, using a single‐channel pipette, and incubated at 20 °C for 20 min. A 12‐channel pipette was then used to transfer and mix 1 μL of varying [6‐P‐F‐Asp] to all 48 wells. The final reaction (30 μL) consisted of 25 mM HEPES pH 8.0 at 20 °C, 5 mM MgCl2, 0.1 mM EGTA, 0.5 mM NAD^+, 1 mU G6PD, 100 nM His6‐FraB, varying (6‐P‐F‐Asp) (between 8 and 12 concentrations), and varying [inhibitor] (between three and five concentrations) in 10% (v/v) DMSO. NADH fluorescence was monitored every 10 s for 10 min total on a SPARK® multi‐mode multiplate reader (Tecan), as described above, and plotted against time. Slopes of the linear range of each curve were converted to initial velocities, as described above, that were then plotted against [6‐P‐F‐Asp]. A hyperbolic curve was then fitted to the data to obtain the k cat and K m values according to the formula: v o = (V max × [S])/(K m + [S]).
To determine the correlation between the observed and expected initial velocities (Fig. S5A), these values were exported from Kaleidagraph, plotted against one another, and a curve was fit using the formula: y = mx + b. The differences between observed and expected initial velocities (residuals) were then depicted as box‐and‐whisker plots (Fig. S5B). Lineweaver‐Burk plots were generated by graphing 1/v o versus 1/[S] and curves were fit to the data with Kaleidagraph using the formula: 1/v o = (Km/V max).(1/[S]) + (1/V max). The k cat and K m parameters were then converted into α′ values by dividing the k cat of the control (no inhibitor) by either itself (α′= 1) or the k cat of test samples with variable [inhibitor]. Those α′ values were plotted against [inhibitor] and K I values were determined from the equation α = 1 + [I]/K I.
The initial velocities used to generate the Michaelis–Menten plots were also employed to obtain the IC50 vs [S]/K m plots. For a given [S], initial velocities were converted into relative activities and plotted versus [inhibitor]. […] The IC50 values determined from the IC50 vs [S]/K m plots were then used to plot 1/IC50 versus v o/V max. A curve was fit to the data using the formula: y = mx + b. The Y‐intercept of the 1/IC50 versus v o/V max plot is equal to 1/K IC, and the slope, for mixed inhibitors, is equal to 1/K IU – 1/K IC. […] Data analyses were performed as described above (see Tables S1–S7 for curve‐fit errors and goodness‐of‐fit values).

[2] = test system: Salmonella tolC mutant; test: Growth assay, Salmonella tolC mutant in wild‐type or fra island mutant background; assay type: cell-based; settings: early finding; could not be replicated after multiple attempts with stocks from different suppliers (data not shown)
Text: We sought to examine the possibility that some of the hits in the biochemical HTS were not picked up in the cell‐based assays due to efficient efflux mechanisms in Salmonella. Because TolC is an outer membrane protein channel that is essential for the ability of seven of the 10 inner membrane drug‐efflux transporters to expel structurally diverse molecules, we generated a Salmonella tolC mutant and tested the 121 compounds that we purchased (Sabag‐Daigle, A. & Ahmer, B. M. M., unpublished results). The tests were conducted in parallel using the tolC mutant in a wild‐type or fra island mutant background; the latter lacks the entire fra locus and is incapable of catabolizing F‐Asn and forming 6‐P‐F‐Asp. Thus, any inhibitor specific for FraB (and which was being effluxed in the wild‐type) will inhibit the tolC mutant in a wild‐type but not the fra island mutant background. A caveat is that efflux of compounds may also be achieved via TolC‐independent drug‐efflux pumps.

[3] = Trial 1, 6-P-F-Asp 7.38 µM, S/Km 0.175714, unit from Fig. S11 axis, read-out: IC50 (IC50 versus [S]/Km plots)
[4] = Trial 1, 6-P-F-Asp 15.7 µM, S/Km 0.37381, unit from Fig. S11 axis, read-out: IC50 (IC50 versus [S]/Km plots)
[5] = Trial 1, 6-P-F-Asp 31.3 µM, S/Km 0.745238, unit from Fig. S11 axis, read-out: IC50 (IC50 versus [S]/Km plots)
[6] = Trial 1, 6-P-F-Asp 62.5 µM, S/Km 1.488095, unit from Fig. S11 axis, read-out: IC50 (IC50 versus [S]/Km plots)
[7] = Trial 1, 6-P-F-Asp 125 µM, S/Km 2.97619, unit from Fig. S11 axis, read-out: IC50 (IC50 versus [S]/Km plots)
[8] = Trial 1, 6-P-F-Asp 250 µM, S/Km 5.952381, unit from Fig. S11 axis, read-out: IC50 (IC50 versus [S]/Km plots)
[9] = Trial 1, 6-P-F-Asp 500 µM, S/Km 11.90476, unit from Fig. S11 axis, read-out: IC50 (IC50 versus [S]/Km plots)
[10] = Trial 1, 6-P-F-Asp 750 µM, S/Km 17.85714, unit from Fig. S11 axis, read-out: IC50 (IC50 versus [S]/Km plots)
[11] = Trial 1, 6-P-F-Asp 1000 µM, S/Km 23.80952, unit from Fig. S11 axis, read-out: IC50 (IC50 versus [S]/Km plots)
[12] = Trial 1, 6-P-F-Asp 2000 µM, S/Km 47.61905, unit from Fig. S11 axis, read-out: IC50 (IC50 versus [S]/Km plots)
[13] = Trial 1, 6-P-F-Asp 3000 µM, S/Km 71.42857, unit from Fig. S11 axis, read-out: IC50 (IC50 versus [S]/Km plots)
[14] = Trial 2, 6-P-F-Asp 7.38 µM, S/Km 0.175714, unit from Fig. S11 axis, read-out: IC50 (IC50 versus [S]/Km plots)
[15] = Trial 2, 6-P-F-Asp 15.7 µM, S/Km 0.37381, unit from Fig. S11 axis, read-out: IC50 (IC50 versus [S]/Km plots)
[16] = Trial 2, 6-P-F-Asp 31.3 µM, S/Km 0.745238, unit from Fig. S11 axis, read-out: IC50 (IC50 versus [S]/Km plots)
[17] = Trial 2, 6-P-F-Asp 62.5 µM, S/Km 1.488095, unit from Fig. S11 axis, read-out: IC50 (IC50 versus [S]/Km plots)
[18] = Trial 2, 6-P-F-Asp 125 µM, S/Km 2.97619, unit from Fig. S11 axis, read-out: IC50 (IC50 versus [S]/Km plots)
[19] = Trial 2, 6-P-F-Asp 250 µM, S/Km 5.952381, unit from Fig. S11 axis, read-out: IC50 (IC50 versus [S]/Km plots)
[20] = Trial 2, 6-P-F-Asp 500 µM, S/Km 11.90476, unit from Fig. S11 axis, read-out: IC50 (IC50 versus [S]/Km plots)
[21] = Trial 2, 6-P-F-Asp 750 µM, S/Km 17.85714, unit from Fig. S11 axis, read-out: IC50 (IC50 versus [S]/Km plots)
[22] = Trial 2, 6-P-F-Asp 1000 µM, S/Km 23.80952, unit from Fig. S11 axis, read-out: IC50 (IC50 versus [S]/Km plots)
[23] = Trial 2, 6-P-F-Asp 2000 µM, S/Km 47.61905, unit from Fig. S11 axis, read-out: IC50 (IC50 versus [S]/Km plots)
[24] = Trial 2, 6-P-F-Asp 3000 µM, S/Km 71.42857, unit from Fig. S11 axis, read-out: IC50 (IC50 versus [S]/Km plots)
[25] = from Michaelis–Menten analysis of FraB at different inhibitor concentrations, average and standard error from two measurements, read-out: K I

His6‐FraB (Salmonella FraB deglycase), sequence (Q8ZLD0 entry or part of it): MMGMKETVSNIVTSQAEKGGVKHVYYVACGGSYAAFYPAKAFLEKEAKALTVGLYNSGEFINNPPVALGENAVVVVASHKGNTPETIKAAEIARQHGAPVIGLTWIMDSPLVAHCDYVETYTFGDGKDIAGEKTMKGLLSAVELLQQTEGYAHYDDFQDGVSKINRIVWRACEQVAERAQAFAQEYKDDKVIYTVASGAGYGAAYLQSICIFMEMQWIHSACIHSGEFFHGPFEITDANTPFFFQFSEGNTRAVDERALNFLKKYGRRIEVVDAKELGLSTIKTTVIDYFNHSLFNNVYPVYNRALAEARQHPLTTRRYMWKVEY

`O=c1[nH][nH]c(=S)n1Cc1ccccc1` [1533:K12, 4‐benzyl‐5‐sulfanylidene‐1,2,4‐triazolidin‐3‐one] was tested, and the “change of IC50 values with increasing [S]/K m” value [1] was “modest decrease”, the “slope in plots of 1/IC50 vs. v o/V max” value [1] was “weakly positive” and the IC50 [1, 3] was 26.2 µM. It also gave an IC50 [1, 4] of 24.1 µM, an IC50 [1, 5] of 18.5 µM and an IC50 [1, 6] of 18.3 µM. For the same molecule, the IC50 [1, 7] was 18.1 µM, the IC50 [1, 8] was 19.6 µM and the IC50 [1, 9] was 18.7 µM. It also gave an IC50 [1, 10] of 20.1 µM, an IC50 [1, 11] of 16.7 µM and an IC50 [1, 12] of 18.6 µM. It also gave an IC50 [1, 13] of 21.2 µM, an IC50 [1, 14] of 24.9 µM and an IC50 [1, 15] of 24.7 µM. The IC50 [1, 16] was 26.5 µM, the IC50 [1, 17] was 25.9 µM and the IC50 [1, 18] was 24 µM. It also gave an IC50 [1, 19] of 23.8 µM, an IC50 [1, 20] of 21.8 µM and an IC50 [1, 21] of 20.5 µM. For the same molecule, the IC50 [1, 22] was 21.1 µM, the IC50 [1, 23] was 20.8 µM and the IC50 [1, 24] was 20.7 µM. For the same molecule, the “K IU/K IC ratio” value [1] was 0.75 ± 0.05, the Ki [1, 25] was 12 ± 1 µM and the Ki ([1]; independent trial shown in Fig. S11 panels A-L, read-out: KI from α′ vs [I] plot) was 13 µM. For the same molecule, the mode of inhibition [1] was “mixed‐type uncompetitive”, the IC50 ([1]; single trial shown in Fig. 5, read-out: IC50, mean and standard deviation of all IC50 values in IC50 vs [S]/Km plot) was 23 ± 2 µM and the Ki ([1]; single trial shown in Fig. 5, read-out: KI from α′ vs [I] plot) was 11 µM.
For `c1ccc(-c2nnc3sc(C4COc5ccccc5O4)nn23)nc1` (stereo not shown) [3469:F02, 6‐(2,3‐dihydro‐1,4‐benzodioxin‐3‐yl)‐3‐pyridin‐2‐yl‐[1,2,4]triazolo[3,4‐b][1,3,4]thiadiazole], the “change of IC50 values with increasing [S]/K m” value [1] was “slight increase”, the “slope in plots of 1/IC50 vs. v o/V max” value [1] was “weakly negative” and the IC50 [1, 3] was 18.9 µM. It also gave an IC50 [1, 4] of 27.6 µM, an IC50 [1, 5] of 33.5 µM and an IC50 [1, 6] of 27.9 µM. The IC50 [1, 7] was 34 µM, the IC50 [1, 8] was 31.8 µM and the IC50 [1, 9] was 32.7 µM. The IC50 [1, 10] was 33.7 µM, the IC50 [1, 11] was 33.9 µM and the IC50 [1, 12] was 36.1 µM. The IC50 [1, 13] was 52.6 µM, the IC50 [1, 14] was 41.2 µM and the IC50 [1, 15] was 41.3 µM. It also gave an IC50 [1, 16] of 51.7 µM, an IC50 [1, 17] of 51.3 µM and an IC50 [1, 18] of 49.2 µM. It also gave an IC50 [1, 19] of 47.8 µM, an IC50 [1, 20] of 46.1 µM and an IC50 [1, 21] of 45.4 µM. For the same molecule, the IC50 [1, 22] was 48.9 µM, the IC50 [1, 23] was 59.2 µM and the IC50 [1, 24] was 67.2 µM. The “K IU/K IC ratio” value [1] was 1.35 ± 0.25, the Ki [1, 25] was 28.5 ± 3.5 µM and the mode of inhibition [1] was “mixed‐type competitive”. The IC50 ([1]; trial shown in Fig. S11 panels M-X, read-out: IC50, mean and standard deviation of all IC50 values in IC50 vs [S]/Km plot) was 50 ± 8 µM, the Ki ([1]; trial shown in Fig. S11 panels M-X, read-out: KI from α′ vs [I] plot) was 25 µM and the Ki ([1]; trial shown in Fig. S11 panels Y-AJ, read-out: KI from α′ vs [I] plot) was 32 µM. For the same molecule, the “inhibition of growth of Salmonella tolC, fra‐dependent” value [2] was “initially shown to inhibit the growth of Salmonella tolC in a fra‐dependent manner”.
